# Test results taken from patent US11219664B2, “Composition for diagnosing, preventing, or treating vascular smooth muscle cell proliferative diseases using FGF12” (CHUNG-ANG UNIVERSITY INDUSTRY ACADEMIC COOPERATION …, priority 2015, dated 2022).
# B1: BMP-4: Bone morphogenic protein-4 (protein)
# chain: SPKHHSQRARKKNKNCRRHSLYVDFSDVGWNDWIVAPPGYQAFYCHGDCPFPLADHLNSTNHAIVQTLVNSVNSSIPKACCVPTELSAISMLYLDEYDKVVLKNYQEMVVEGCGCR
# B2: BMP-7: bone morphogenetic protein, promotes differentiation and inhibits proliferation of vascular smooth muscle cells (protein, UniProt P18075 293-431, looked up)
# Bone morphogenetic protein 7: STGSKQRSQNRSKTPKNQEALRMANVAENSSSDQRQACKKHELYVSFRDLGWQDWIIAPEGYAAYYCEGECAFPLNSYMNATNHAIVQTLVHFINPETVPKPCCAPTQLNAISVLYFDDSSNVILKKYRNMVVRACGCH
# Columns and labels:
# [1] = system: human aortic smooth muscle cells (HASMCs); assay: FGF12 expression regulation by PDGF-BB in HASMCs (RT-PCR, immunofluorescence); type: cell-based
# Excerpt: (§1) Tissue sections and cells were stained with primary antibody against Ki67 (Dako Inc.), FGF12 (Abcam), phospho-p53 (p-p53; Cell Signaling Technology), α-smooth muscle actin (α-SMA; Sigma), or SM22α (Abcam) and proper fluorescence-labeled secondary antibody. Nuclei were stained with 4′,6-diamidino-2-phenylindole (DAPI). The stained cells were observed using a fluorescence microscope (Nikon). All images shown are representative of independent three experiments.
# (§2) Total RNA of cells or tissues for reverse transcription-polymerase chain reaction (RT-PCR) was isolated with TRIzol reagent (Invitrogen). Next, cDNA was synthesized from total RNA using primers specific to corresponding genes and a Superscript first-strand synthesis kit (Invitrogen), and was amplified by PCR (30-35 cycles). Glyceraldehyde-3-phosphate dehydrogenase (GAPDH) was used as a loading control. Real-time PCR was performed using a SYBR-Green PCR master mix (Applied biosystems) and the StepOnePlus™ Real Time PCR System (Applied Biosystems). Data were analyzed according to ΔΔCt method, and gene expression values were normalized to GAPDH expression.
# (§3) Human aortic vascular smooth muscle cells (HASMCs; ScienCell Research Laboratories) and human pulmonary […] vascular smooth muscle cell (HPASMC, ScienCell Research laboratories) were cultured in smooth muscle growth medium (SMGM, ScienCell Research Laboratories) or basal medium. For a compound inhibitor experiment, HASMCs and HPASMCs were pre-treated with pifithrin (10 μM; Sigma), LY294002 (20 μM; Cell Signaling Technology), PD98059 (50 μM; Cell Signaling Technology), U0 126 (10 μM; Cell Signaling Technology), SB203580 (50 μM; Cell Signaling Technology), and BIRB796 (10 μM; Merck) at 37° C. for 24 hours.
# [2] = system: FGF12 promoter; assay: Luciferase reporter assay with FGF12 promoter; type: cell-based, human; conditions: HASMCs, pGL3-FGF12 reporter, PDGF-BB 50 ng/ml versus removed
# Experimental: For the luciferase reporter assay, approximately 2000 base pairs of the FGF12 5′-UTR were cloned into a firefly luciferase reporter vector (pGL3-phFGF12). HASMCs were co-transfected with an empty vector (pGL3-basic) or pGL3-phFGF12, together with a constitutively active β-galactosidase reporter plasmid as a transfection control. After 48 hours, luciferase and galactosidase activities were analyzed using a luciferase and galactosidase assay kit (Stratagene). The luciferase activity was normalized to galactosidase activity, and expressed as a relative value compared with the luciferase activity measured in HASMCs transfected with pGL3-basic and cultured in a medium containing PDGF-BB (50 ng/ml) for 1 day.
# [3] = system: human pulmonary aortic vascular smooth muscle cells (HPASMCs); assay: FGF12 expression regulation by PDGF-BB in HPASMCs (RT-PCR, immunofluorescence); type: cell-based
# Excerpt: as §1, §2, §3
# [4] = system: HPASMCs; assay: Cell proliferation by Ki67 staining in HPASMCs; type: cell-based, human; conditions: pifithrin 10 μM
# Excerpt: as §1
# (§4) For cell proliferation analysis, cells were inoculated triplicate in a 24-well plate, and cultured in the basal medium supplemented with 50 ng/ml platelet-derived growth factor-BB (PDGF-BB; R&D systems), 100 ng/ml Bone morphogenic protein-4 (BMP-4; R&D systems), or 10% FBS. Cell proliferation was determined by an MTS assay (MTS assay; Promega) or immunofluorescence assay using anti-Ki67 IgG (Dako). Five representative color images were randomly acquired from each sample for quantifying Ki67 stained cells (Ki67+ cells), and the percentage of Ki67+ cells was determined through dividing the mean value of Ki67+ cells by the total number of cells on each image.
# [5] = system: HASMCs; assay: Cell proliferation by Ki67 staining in HASMCs; type: cell-based, human; conditions: pifithrin 10 μM
# Excerpt: as §1, §4
# [6] = system: HPASMC; assay: FGF12 expression regulation by BMP in HPASMC (RT-PCR, Western blotting); type: cell-based, human; conditions: for FGF12 protein expression / protein expression of vascular smooth muscle cell differentiation markers (α-SMA, SM22α): 30 ng/ml, 48 hours, western blotting; for level of FGF12 mRNA: 48 hours after addition to basal medium (10 and 30 ng/ml), RT-PCR
# Experimental: as §2
# For transfection for FGF12 overexpression, an expression vector (pCMV6-Entry having the c-terminal labeled Myc-DDK) encoding a rat homologous gene (Origene) having 100% amino acid homology with human FGF12 cDNA was used. HASMCs and HPASMCs were transfected with pCMV6-FGF12(pFGF12) or pCMV6-Entry (pEntry) control vector using Lipofectamien™ 2000 according to the protocol of the manufacturer, and selected using G418 (Sigma) for 2 weeks. For the inhibition of FGF12, p53 or BMPR2 expression, subconfluent HASMCs were transfected with specific or non-specific small interfering RNA (siRNA; GE Healthcare) using Lipofectamien™ 2000.
# Cell and tissue lysates were separated by SDS-PAGE, and protein bands were transferred on blots. Blots were reacted with appropriate primary antibodies such as FGF12 (Abcam), p-p53 (Cell Signaling Technology), p53 (BD Biosciences), α-SMA (Sigma), SM22α (Abcam), SM-MHC, or β-actin (Santa Cruz biotechnology), followed by treatment with horseradish peroxidase-conjugated secondary antibodies.
# [7] = 3 hours after PDGF-BB (50 ng/ml) added to basal medium, RT-PCR
# [8] = after 24 hours of PDGF-BB stimulation
molecule,measurement,setting,value
"PDGF-BB: platelet-derived growth factor subunit B homodimer, vascular smooth muscle cell mitogen",mRNA level of FGF12,[1]; [7],greatly decreased
same,expression level of FGF12 (immunofluorescent experiment),"[1]; PDGF-BB 50 ng/ml, one day",decreased
same,mRNA level of FGF12,[1]; [8],further decreased
same,mRNA level of the contractible gene SM-HMC,[1]; [8],decreased
same,mRNA level of the proliferation marker gene CDK1,[1]; [8],increased
same,transcriptional activity of the FGF12 promoter,[2],inhibits the expression of FGF12 at a transcriptional level
same,mRNA level of FGF12,[3]; [7],greatly decreased
same,expression level of FGF12 (immunofluorescent experiment),"[3]; PDGF-BB 50 ng/ml, one day",decreased
same,mRNA level of FGF12,[3]; [8],further decreased
same,mRNA level of the contractible gene SM-HMC,[3]; [8],decreased
pifithrin,cell proliferation of Ad-FGF12-transfected cells,[4],significantly improving the cell proliferation
same,cell proliferation of Ad-FGF12-transfected cells,[5],significantly improving the cell proliferation
B1,FGF12 protein expression,[6],increased
same,"protein expression of vascular smooth muscle cell differentiation markers (α-SMA, SM22α)",[6],increased
same,level of FGF12 mRNA,[6],significantly increased
B2,FGF12 protein expression,[6],increased
same,"protein expression of vascular smooth muscle cell differentiation markers (α-SMA, SM22α)",[6],increased
same,level of FGF12 mRNA,[6],significantly increased
